Consider two compounds from paper PMC10527105, “Chirality Matters: Fine-Tuning of Novel Monoamine Reuptake Inhibitors Selectivity through Manipulation of Stereochemistry” (Biomolecules, 2023).

A word on the IC50: it is the concentration at which inhibition is half-maximal. What is called Ki is a measure of affinity in units of concentration, obtained from inhibition or displacement.

The structures appear in SMILES notation. “Also recorded” adds a separate entry of the source. Read-outs that look alike come from different tables or passages of the source.

Data set [1] addresses T1, human dopamine transporter/SLC6A3 (DAT) (Homo sapiens, UniProt Q01959).
T1 construct: expressed in transfected cells; host or cells: HEK293
Description: Cellular uptake experiments: [3H]-dopamine reuptake inhibition in transporter-expressing HEK293 cells. As to conditions: Reuptake Inhibition (IC50 ± SE, µM) DAT, cells stably expressing DAT; [3H]-dopamine 1 µM; screening cut-off 50 µM. In kind it is cell-based. The method, boiled down:
(§1)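 Stably transfected HEK293 cells preincubated 5 min with compound, then 1 µM [3H]-substrate for 2.5 min (SERT: 5 min) at 25 °C, pH 7.1 buffer; uptake counted by scintillation. Nonspecific uptake defined with 10 µM mazindol (DAT, NET) or 10 µM clomipramine (SERT).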

A further data set concerns the target T2, human DAT (Homo sapiens, UniProt Q01959).
T2 construct: host or cells: CHO
Description: Radioligand binding assay, [3H]BTCP, CHO cells (Eurofins Cerep). The procedure:
(§2) Binding experiments. Binding affinity to the human DAT, SERT, and NET stable proteins expressed in CHO cells was evaluated in in vitro radioligand binding assays. Non-specific binding was determined using [^3H]BTCP, [^3H]imipramine, and ^[3H] nisoxetine for hDAT, hSERT, and hNET, respectively. The IC50 values were calculated by non-linear regression analysis of the competition curves generated from the mean replicate values. The Ki values were calculated using the Cheng–Prusoff equation (Ki = IC50/(1 + […])). Binding assays were carried out by Eurofins (Cerep SA, Celle l’Evescault, France), Study No. 100053935. For an in-depth description, please refer to the report in the supporting information file.

The target of a further data set is T3, human SERT (Homo sapiens, UniProt P31645).
T3 construct: host or cells: CHO
Description: Radioligand binding assay, [3H]imipramine, CHO cells (Eurofins Cerep). As to conditions: human SERT expressed in CHO cells; read-out: Ki, binding sites of the SERT (against [3H]imipramine). How it is done:
as §2

The target in data set [2] is T4, noradrenaline transporter/SLC6A2 (NET) (Homo sapiens, UniProt P23975).
T4 construct: expressed in transfected cells; host or cells: HEK293
Description: Cellular uptake experiments: [3H]-noradrenaline reuptake inhibition in transporter-expressing HEK293 cells. In kind it is cell-based. The method, boiled down:
as §1

The test system of a further data set is rat cortical neurons. Description: Neurite outgrowth assay (Cyprotex). In kind it is cell-based. As to conditions: for IC50: Rattus norvegicus, Cortical neurone, 72 h; for window between neurite outgrowth effect concentration and active concentration: effect at 100 µM compared to the active concentration; for effect on valid neuron count, mean neurite average length and neurite total length per neuron: only at 100 µM (top concentration tested); for effect on neurite outgrowth in relation to effect on cell viability: rat cortical neurons; for cell-toxic effects: up to a concentration of 50 µM. How it is done:
Neurite outgrowth assay. […] were carried out by Cyprotex (an Evotec Company, Toulouse, France), Study No. CYP2052-R1. For an in-depth description, please refer to the report in the supporting information files. Cryo-preserved rat cortical neurons (QBM Cell Science, R-Cx-500) were quickly thawed and slowly diluted with neurobasal medium supplemented with L-glutamine (Invitrogen, Cat. No. 25030-081), penicillin-streptomycin (Invitrogen, Cat. No. 15140-122), and B27 (NB/B27 medium, Invitrogen, Cat. No. 17504-044). After a gentle centrifugation step, the neurons were resuspended in NB/B27 medium at a density of 4.0 × 10^6 cells/mL. One hour prior to treatment, the neurons were plated in 384-well plates (Corning 354663) pre-coated with a laminin solution (Sigma L2020 1 mg/mL) at a density of 10,000 cells per well. After treatment with test articles and control compounds, the neurons were maintained in a humidified environment at 37 °C with 5% CO2 for 72 h. At the end of the treatment period, the neurons were fixed for 1 h with a 3.7% formaldehyde solution (Acros Organics, 41073-0010). The neurons were washed with phosphate buffered saline (PBS) (SH30264.02) and permeabilized for 10 min with a 0.5% solution of Triton X-100 (Millipore Sigma, X100). After another wash step, the neurons were stained for one hour with Hoechst 33342 (ThermoFisher Scientific, H3570) and the anti-beta III tubulin antibody, Alexa Fluor® 488 conjugate (Millipore Sigma AB15708A4), diluted in a blocking buffer solution (Thermo Scientific, 37525). Upon completion of the staining step, the neurons were washed again, and the plates were sealed in preparation for the imaging process. The neurons were evaluated for neurite outgrowth and cell health using the high-content imaging platform, ArrayScan VTi (Thermo Scientific ArrayScan VTi), with an optimized neuronal profiling bio-application.
This assay assessed cell health and neurite outgrowth utilizing a neuronal profiling bio-application applied to images obtained on an ArrayScan VTi. Valid neuron count, mean neurite average length, and neurite total length per neuron were determined and reported. Raw data were normalized to the vehicle control and reported as a normalized% response. Dose response graphs were generated with GraphPad Prism using a sigmoidal dose-response (variable slope) algorithm.

Data set [3] has as its target T5, human serotonin transporter/SLC6A4 (SERT) (Homo sapiens, UniProt P31645).
T5 construct: expressed in transfected cells; host or cells: HEK293
Description: Cellular uptake experiments: [3H]-serotonin reuptake inhibition in transporter-expressing HEK293 cells. As to conditions: Reuptake Inhibition (IC50 ± SE, µM) SERT, cells stably expressing SERT; [3H]-serotonin 1 µM; screening cut-off 50 µM. In kind it is cell-based. The gist of the method:
as §1

For data set [4], the target named is T6, DAT-expressing SK-N-MC cells (Homo sapiens, UniProt Q01959).
T6 construct: expressed in transfected cells; host or cells: SK-N-MC (human neuroblastoma)
Description: Superfusion experiments: [3H]MPP+ efflux and d-amphetamine interaction. In kind it is cell-based. As to conditions: for action on the dopamine-releasing effect of D-amphetamine: 3 µM D-amphetamine; for efflux-increasing (releasing) action on DAT-expressing, substrate-loaded superfused cells: compound alone.

Another data set concerns the target T7, human NET (Homo sapiens, UniProt P23975).
T7 construct: host or cells: CHO
Description: Radioligand binding assay, [3H]nisoxetine, CHO cells (Eurofins Cerep). As to conditions: human NET expressed in CHO cells; read-out: Ki, binding sites of the NET (against [3H]nisoxetine). The procedure:
as §2

The mark [5] stands for this setting: read-out: Mean Neurite Avg. Length IC50, rat cortical neurons, 72 h.
Setting [6] is: read-out: Neurite Total Length per Neuron IC50, rat cortical neurons, 72 h.
The mark [7] stands for this setting: read-out: Valid Neuron Count IC50, rat cortical neurons, 72 h.

T6 sequence (Q01959 whole entry): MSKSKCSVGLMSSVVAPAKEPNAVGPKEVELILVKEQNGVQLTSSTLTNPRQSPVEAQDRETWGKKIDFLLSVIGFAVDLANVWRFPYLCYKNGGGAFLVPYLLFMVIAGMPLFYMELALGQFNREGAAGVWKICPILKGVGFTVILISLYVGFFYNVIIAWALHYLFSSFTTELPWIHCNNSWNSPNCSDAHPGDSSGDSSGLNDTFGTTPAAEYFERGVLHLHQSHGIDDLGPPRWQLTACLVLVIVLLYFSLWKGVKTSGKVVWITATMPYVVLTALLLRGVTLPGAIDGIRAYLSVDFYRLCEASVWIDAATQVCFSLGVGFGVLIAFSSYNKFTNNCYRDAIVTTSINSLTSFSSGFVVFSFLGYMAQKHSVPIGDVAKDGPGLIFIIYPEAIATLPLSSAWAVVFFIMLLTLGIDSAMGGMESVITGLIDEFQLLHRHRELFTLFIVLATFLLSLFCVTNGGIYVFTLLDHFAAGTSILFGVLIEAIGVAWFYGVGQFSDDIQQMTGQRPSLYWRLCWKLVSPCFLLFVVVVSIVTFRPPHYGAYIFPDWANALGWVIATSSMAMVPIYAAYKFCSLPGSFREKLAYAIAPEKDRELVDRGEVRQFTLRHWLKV
T2 sequence (Q01959 whole entry): as above
T1 sequence (Q01959 whole entry): as above
T7 sequence (P23975 whole entry): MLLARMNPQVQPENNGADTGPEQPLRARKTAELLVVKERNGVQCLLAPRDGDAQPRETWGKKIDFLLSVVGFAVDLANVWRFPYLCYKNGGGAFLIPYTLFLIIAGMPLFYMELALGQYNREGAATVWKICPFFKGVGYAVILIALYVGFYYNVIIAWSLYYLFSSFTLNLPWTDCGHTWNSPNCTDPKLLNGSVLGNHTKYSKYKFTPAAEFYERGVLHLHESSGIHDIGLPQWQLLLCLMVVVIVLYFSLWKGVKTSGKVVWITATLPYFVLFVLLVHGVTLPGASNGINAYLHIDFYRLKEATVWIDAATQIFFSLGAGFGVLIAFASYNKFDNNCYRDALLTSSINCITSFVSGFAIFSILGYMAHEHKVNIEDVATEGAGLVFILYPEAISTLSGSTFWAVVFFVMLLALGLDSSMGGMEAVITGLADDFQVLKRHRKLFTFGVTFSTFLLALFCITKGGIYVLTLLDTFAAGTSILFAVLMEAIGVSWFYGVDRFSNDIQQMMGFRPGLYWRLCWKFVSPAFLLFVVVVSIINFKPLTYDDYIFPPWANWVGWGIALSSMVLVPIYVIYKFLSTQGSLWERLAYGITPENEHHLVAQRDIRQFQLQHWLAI
T4 sequence (P23975 whole entry): as above
T5 sequence (P31645 whole entry): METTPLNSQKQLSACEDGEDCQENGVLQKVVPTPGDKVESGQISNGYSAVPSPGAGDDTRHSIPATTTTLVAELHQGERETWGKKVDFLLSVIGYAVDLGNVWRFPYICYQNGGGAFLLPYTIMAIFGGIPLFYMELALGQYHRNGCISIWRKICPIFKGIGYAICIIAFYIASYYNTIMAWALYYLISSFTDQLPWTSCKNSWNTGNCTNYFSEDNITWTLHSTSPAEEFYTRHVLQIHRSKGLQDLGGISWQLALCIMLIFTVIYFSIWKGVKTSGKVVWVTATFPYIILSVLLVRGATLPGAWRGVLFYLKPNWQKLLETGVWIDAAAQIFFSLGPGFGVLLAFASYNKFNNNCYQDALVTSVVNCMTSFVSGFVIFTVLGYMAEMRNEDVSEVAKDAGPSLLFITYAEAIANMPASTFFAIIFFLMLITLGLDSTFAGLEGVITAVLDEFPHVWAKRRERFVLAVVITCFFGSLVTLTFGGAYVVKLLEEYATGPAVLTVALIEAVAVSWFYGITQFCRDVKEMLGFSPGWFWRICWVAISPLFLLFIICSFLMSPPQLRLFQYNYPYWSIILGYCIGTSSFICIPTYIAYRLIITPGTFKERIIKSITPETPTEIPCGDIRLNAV
T3 sequence (P31645 whole entry): as above

As for `[O-][S@@+](Cc1cccs1)[C@@H](c1ccccc1)c1cccc(Br)c1` [Compound 7h, (S,S)-2-((((3-bromophenyl)(phenyl)methyl)sulfinyl)methyl)thiophene], the IC50 is 0.48 ± 0.11 µM in data set [1]; 16.4 ± 0.6 µM in data set [2]; 65.8 µM in the data set with rat cortical neurons (setting [5]); 59.8 µM in the data set with rat cortical neurons (setting [6]); 92.2 µM in the data set with rat cortical neurons (setting [7]); above 50 µM in data set [3]. Further, the Ki is 0.013 µM at human DAT, above 10 µM at human SERT and above 10 µM on human NET. The “window between neurite outgrowth effect concentration and active concentration” value in the data set on rat cortical neurons is “more than 100 fold”. Moreover, the “effect on valid neuron count, mean neurite average length and neurite total length per neuron” value in the data set with rat cortical neurons is listed as “significant decreases”. Also, in the data set with rat cortical neurons, the “effect on neurite outgrowth in relation to effect on cell viability” value is given as “not independent of their effect on cell viability”. In the data set with rat cortical neurons, the cell-toxic effects entry is “absence of cell-toxic effects”. The “action on the dopamine-releasing effect of D-amphetamine” value in data set [4] was “potent inhibiting action”. The “efflux-increasing (releasing) action on DAT-expressing, substrate-loaded superfused cells” value in data set [4] is listed as “absence of an efflux-increasing action; also recorded: lack of amphetamine-like effects”.
As to `[O-][S@+](Cc1cccs1)[C@H](c1ccccc1)c1cccc(Br)c1` [Compound 8h, (R,R)-2-((((3-bromophenyl)(phenyl)methyl)sulfinyl)methyl)thiophene], the IC50 in data set [1] is 0.3 ± 0.03 µM; in data set [2], above 50 µM; with rat cortical neurons (setting [5]), 75.2 µM; with rat cortical neurons (setting [6]), 72.2 µM; with rat cortical neurons (setting [7]) it was 94.6 µM; in data set [3], 14 ± 3 µM. Moreover, the results for the Ki at human DAT, at human SERT and on human NET were 0.035 µM, above 10 µM and above 10 µM, respectively. Besides, the “window between neurite outgrowth effect concentration and active concentration” value in the data set on rat cortical neurons is reported as “more than 100 fold”. For the same compound, the “effect on valid neuron count, mean neurite average length and neurite total length per neuron” value in the data set with rat cortical neurons is on record as “significant decreases”. Besides, in the data set on rat cortical neurons, the “effect on neurite outgrowth in relation to effect on cell viability” value is “not independent of their effect on cell viability”. The cell-toxic effects entry in the data set with rat cortical neurons was “absence of cell-toxic effects”. In addition, the “action on the dopamine-releasing effect of D-amphetamine” value in data set [4] was “potent inhibiting action”. The “efflux-increasing (releasing) action on DAT-expressing, substrate-loaded superfused cells” value in data set [4] is reported as “absence of an efflux-increasing action; also recorded: lack of amphetamine-like effects”.
